From US9556114B2, “Fluorinated 2-amino-4-(benzylamino)phenylcarbamate derivatives” (SciFluor Life Sciences, Inc., priority 2012, dated 2017)
Where “and” joins values, the source holds several entries; their conditions need not be identical. Equal entries are not always repeated.

Target: T1, cloned KCNQ2/3 potassium channels (encoded by the human KCNQ2/3 gene and expressed in HEK293 cells) (Homo sapiens, UniProt O43525+O43526)
T1 construct: expressed in transfected cells; host or cells: HEK293 cells
Test: Assessment of KCNQ2/3 channel activation activity, QPatch HT automatic parallel patch clamp
Assay type: cell-based
Conditions: for Mean % KCNQ2/3 Activation: 5 min exposure, room temperature, HEK293 cells; for Individual Data Points (% Activation): single cell values; for KCNQ2/3 activation activity compared with ezogabine: single concentration (0.1 μM)
Description: The in vitro effects of ezogabine and Compound 1A on cloned KCNQ2/3 potassium channels (encoded by the human KCNQ2/3 gene and expressed in HEK293 cells) were evaluated at room temperature using the QPatch HT® (Sophion Bioscience A/S, Denmark), an automatic parallel patch clamp system. Each test article was evaluated at 0.01, 0.1, 1, 10 and 100 μM with each concentration tested in at least two cells (n≧2). The duration of exposure to each test article concentration was 5 minutes.
The baseline for each recording was established using a 5-10 minute vehicle application (HBPS+0.3% DMSO). A single test article concentration was applied for a period of 5 minutes after the vehicle, followed by a 3 minute application of 30 μM flupirtine. Each recording ended with a supramaximal dose of 30 μM linopirdine. The % activation was calculated using the following equation by using leak subtracted responses: […]

`CCOC(=O)Nc1ccc(NCc2ccc(F)cc2)c(F)c1N` [Compound 1A, ethyl(2-amino-3-fluoro-4-((4-fluorobenzyl)amino)phenyl)carbamate] was tested, and the “Mean % KCNQ2/3 Activation” value (0.01 μM) was 31.4%, the “Individual Data Points (% Activation)” value (0.01 μM, listed as Compound lA) was 35.9% and 26.9% and the “Mean % KCNQ2/3 Activation” value (0.1 μM) was 62.9%. The “Individual Data Points (% Activation)” value (0.1 μM, listed as Compound lA) was 98.9% and 43.3% and 46.6%, the “Mean % KCNQ2/3 Activation” value (1 μM) was 125.5% and the “Individual Data Points (% Activation)” value (1 μM, listed as Compound lA) was 123.5% and 127.6%. For the same compound, the “Mean % KCNQ2/3 Activation” value (10 μM) was 119.9%, the “Individual Data Points (% Activation)” value (10 μM, listed as Compound lA) was 119.7% and 120.1% and the “Mean % KCNQ2/3 Activation” value (100 μM) was 61.9%. The “Individual Data Points (% Activation)” value (100 μM, listed as Compound lA) was 56.6% and 67.3%.
In the case of `CCOC(=O)Nc1c(N)cc(NCc2ccc(F)cc2)cc1F` [Compound 2A, ethyl(2-amino-6-fluoro-4-((4-fluorobenzyl)amino)phenyl)carbamate], the “KCNQ2/3 activation activity compared with ezogabine” value is reported as “equivalent in activity to ezogabine”.
In the case of `CCOC(=O)Nc1cc(F)c(NCc2ccc(F)cc2)cc1N` [Compound 3A, ethyl(2-amino-5-fluoro-4-((4-fluorobenzyl)amino)phenyl)carbamate], the “KCNQ2/3 activation activity compared with ezogabine” value is reported as “equivalent in activity to ezogabine”.
With `CCOC(=O)Nc1cc(F)c(NCc2ccc(F)cc2)c(F)c1N` [Compound 4A, ethyl(2-amino-3,5-difluoro-4-((4-fluorobenzyl)amino)phenyl)carbamate] the “KCNQ2/3 activation activity compared with ezogabine” value was “equivalent in activity to ezogabine”.
With `CCOC(=O)Nc1ccc(NCc2ccc(F)cc2)cc1N` [ezogabine, ethyl N-[2-amino-4-[(4-fluorophenyl)methylamino]phenyl]carbamate, reference compound] the “Mean % KCNQ2/3 Activation” value (0.01 μM) was 6.6%, the “Individual Data Points (% Activation)” value (0.01 μM) was 2.1% and 11.1% and the “Mean % KCNQ2/3 Activation” value (0.1 μM) was 40.6%. For the same compound, the “Individual Data Points (% Activation)” value (0.1 μM) was 49.1% and 32.2%, the “Mean % KCNQ2/3 Activation” value (1 μM) was 94.4% and the “Individual Data Points (% Activation)” value (1 μM) was 93.6% and 95.2%. For the same compound, the “Mean % KCNQ2/3 Activation” value (10 μM) was 132.0%, the “Individual Data Points (% Activation)” value (10 μM) was 123.7% and 140.4% and the “Mean % KCNQ2/3 Activation” value (100 μM) was 104.1%. The “Individual Data Points (% Activation)” value (100 μM) was 93.8% and 101.9% and 116.5%.
